Where a name gives a salt, the structure may show the parent alone.
What was measured:
[1] = test system: VJ-300 cells (multidrug resistant clones of KB cells); test: In vitro suppression of proliferation of VJ-300 cells by co-administration with vincristine; type: cell-based, Human
Experimental: As the incubation solution, an Eagle MEM medium (made by Nissui Seiyakusha) containing 10% fetal calf serum (made by Flow Laboratories Co.) and 0.292 mg/ml L-glutamine (made by Flow Laboratories Co.) was used. The action overcoming resistance to an anti-neoplastic agent and effect in enforcing the effect of an anti-neoplastic agent obtained through co-administration of the anti-neoplastic agent doxorubicin (adriamycin, ADM) and the test compounds were tested as follows:
The test cells were suspended in the incubation medium and adjusted to a cell density of about 200 cells/ml. 2 ml portions of the cell suspension were placed in petri dishes and incubated in a carbon dioxide gas incubator (5% CO2, 95% air) at 37° C. for 24 hours. Next, predetermined concentrations of aqueous ADM solutions and dimethyl sulfoxide (DMSO) solutions of predetermined concentrations of the test compounds were added into 5 to 10 μl portions, then incubation was continued for 7 days. After the end of the incubation, the samples were fixed by methanol, Giemsa staining was performed, the number of colonies in each dish was counted, and a volume reaction curve was prepared. This was used to calculate the ADM concentration at a 50% cell survival rate (LD50) and judge the action overcoming resistance to an anti-neoplastic agent and effect in enhancing the effect of an anti-neoplastic agent.
The LD50 concentration of ADM in the ADM control group for KB cells was shown as the resistance degree "1" and the other LD50 concentrations were indexed against this to calculate the resistance degrees. In Table 2, ADM alone (control) is the group administered ADM alone, ADM+Compound 1 is the group co-administered ADM and Compound 1 (1 μg /ml) and so on down to ADM+Compound 19 which is the group co-administered ADM and Compound 19 (1 μg /ml).
A volume reaction curve was prepared and the resistance calculated. In the Tables, VCR alone (control) is the group administered VCR alone, VCR+Compound 1 is the group co-administered VCR and Compound 1(1 μg /ml) and so on down to VCR+Compound 16 which is the group co-administered VCR and Compound 16 (1 μg/ml).

[2] = test system: VCR resistant murine leukemic (P388/VCR) cells; test: In vivo effect of overcoming resistance to vincristine in VCR resistant murine leukemia cell bearing mice (intraperitoneal); set-up: species or system CDF1 male mice; settings: i.p., 5 days; for Rate of prolongation of life (T/C %): vs non-administered control
Experimental: (a) 10^6 VCR resistant murine leukemic (P388/VCR) cells were transplanted intraperitoneally to groups of six CDF1 male mice. The compound of the present invention (10 or 100 mg/kg) was suspended in 0.5% sodium carboxymethyl cellulose containing 0.1% Tween 80, while the VCR (100 μg/kg) was dissolved in physiological saline. These were each administered intraperitoneally over 5 days and the mice observed to find the days of survival and the rate of prolongation of life with respect to the control (T/C). The effect in overcoming resistance to an anti-neoplastic agent (T/V) was found from the following formula:
Effect in overcoming resistance to anti-neoplastic agent (T/V%)=(Rate of prolongation of life when co-administering VCR and compound of present invention (T/C%))/(Rate of prolongation of life by VCR alone
In Table 5, "Control" is the non-administered group, VCR alone is the group administered just VCR (100 μg /kg), VCR+Compound 1 is the group co-administered VCR (100 μg /kg) and Compound 1 (100 mg/kg) and so on to VCR+Compound 14* which is the group co-administered VCR (100 μg /kg) and Compound 14 (10 mg/kg).

[3] = test system: VCR resistant murine leukemia (P388/VCR) cells; test: In vivo effect of overcoming resistance with etoposide (VP-16) in P388/VCR bearing mice (intravenous); set-up: species or system CDF1 male mice; settings: i.v., five days; for Rate of prolongation of life (T/C %): vs non-administered control
Experimental: (b) Separately, groups of six CDF1 male mice were intravenously given transplants of 1.2×10^5 VCR resistant murine leukemia (P388/VCR) cells. The compound of the present invention (20 or 40 mg/kg) was dissolved in 0.01N hydrochloric acid. Etoposide (VP-16, 3 mg/kg) was dissolved in a physiological saline solution. These were administered intravenously for five days and the days of survival were found. In the same way as (a), the rate of prolongation of life with respect to the control (T/C) and the effect in overcoming the resistance to an anti-neoplastic agent (T/V) were found. In Table 6, the control is the non-administered group, VP-16 alone is the group administered VP-16 (3 mg/kg) and VP-16+Compound 5 is the group co-administered VP-16 (3 mg/kg) and Compound 5 (40 mg/kg) and so on to VP-16+Compound 16 which is the group co-administered VP-16 (3 mg/kg) and Compound 16 (40 mg/kg).

[4] = Acute toxicity test (a), intraperitoneal, three animals per group; settings: mouse, in vivo, ip, ICR male mice, up to 7 days after administration
From the text: (a) Animals used: ICR male mice (Charles River Japan), 7 to 8 weeks old, were used three to a group.
Test method: The compound of the present invention was suspended in 0.5% sodium carboxymethyl cellulose(CMC-Na) containing 0.1% Tween 80. […] The survival of the animals was examined up to 7 days after administration, then the Van Der Wearder area method was used to calculate the LD50 value.

[5] = Table 4, co-administered VCR and test compound (1 μg/ml), relative to VCR alone in KB = 1
[6] = Table 3, co-administered VCR and test compound (1 μg/ml), relative to VCR alone in KB = 1
[7] = VCR (100 μg/kg) + compound (10 mg/kg)
[8] = VP-16 (3 mg/kg) + compound (20 mg/kg)
[9] = VCR (100 μg/kg) + compound (100 mg/kg)
[10] = VCR (100 μg/kg) + compound (100 mg/kg), vs VCR alone
[11] = VP-16 (3 mg/kg) + compound (40 mg/kg)
[12] = VP-16 (3 mg/kg) + compound (40 mg/kg), vs VP-16 alone

Row | SMILES | Resistance with VCR, VJ-300 (resistance degree) [1, 5] | Resistance with VCR, VJ-300 (resistance degree) [1, 6] | Days of survival [2, 9] [days] | Effect overcoming resistance (T/V %) [2, 10] [%] | Rate of prolongation of life (T/C %) [2, 9] [%] | further results
1 | CC(C)N1CCCC(C(=O)NN=Cc2c(-c3ccccc3)nc3sc4c(n23)CCCC4)C1 (stereo not drawn) [Compound 13, 5,6,7,8-tetrahydro-2-phenyl-3-[N-isopropyl-3-piperidylcarbonylaminoiminomethyl]imidazo[2,1-b]benzothiazole hydrochloride] | 2.0 | – | – | – | – | –
2 | CC[C@]1(O)C[C@H]2CN(CCc3c([nH]c4ccccc34)[C@@](C(=O)OC)(c3cc4c(cc3OC)N(C=O)[C@H]3[C@@](O)(C(=O)OC)[C@H](OC(C)=O)[C@]5(CC)C=CCN6CC[C@]43[C@@H]65)C2)C1 [VCR, vincristine, reference compound] | – | – | – | – | – | Resistance with VCR, VJ-300 (resistance degree) ([1]; Table 3, VCR alone (Control), relative to KB = 1): 306.6; Resistance with VCR, VJ-300 (resistance degree) ([1]; Table 4, VCR alone (Control), relative to KB = 1): 843.1; Days of survival ([2]; VCR alone (100 μg/kg)): 11.08 days; Effect overcoming resistance (T/V %) ([2]; VCR alone (100 μg/kg), reference = 100): 100%; Rate of prolongation of life (T/C %) ([2]; VCR alone (100 μg/kg)): 106%
3 | O=C(NN=Cc1c(-c2cccc([N+](=O)[O-])c2)nc2sc3c(n12)CCCC3)c1cccnc1 [Compound 3, 5,6,7,8-tetrahydro-2-(3-nitrophenyl)-3-(3-pyridylcarbonylaminoiminomethyl)imidazo[2,1-b]benzothiazole] | – | 2.7 | – | – | – | –
4 | O=C(NN=Cc1c(-c2ccccc2)nc2sc3ccccc3n12)c1cccnc1 [Compound 14, 2-phenyl-3-[3-pyridylcarbonylaminoiminomethyl]imidazo[2,1-b]benzothiazole] | 4.0 | – | – | – | – | Days of survival [2, 7]: 13.67 days; Effect overcoming resistance (T/V %) ([2]; VCR (100 μg/kg) + compound (10 mg/kg), vs VCR alone): 124%; Rate of prolongation of life (T/C %) [2, 7]: 131%
5 | CN1CCCC(C(=O)NN=Cc2c(-c3ccc([N+](=O)[O-])cc3)nc3sc4c(n23)CCCC4)C1 (stereo not drawn) [Compound 10, 5,6,7,8-tetrahydro-2-(4-nitrophenyl)-3-[N-methyl-3-piperidylcarbonylaminoiminomethyl]imidazo[2,1-b]benzothiazole hydrochloride] | 8.7 | – | – | – | – | Days of survival [3, 8]: 12.0 days; Effect overcoming resistance (T/V %) ([3]; VP-16 (3 mg/kg) + compound (20 mg/kg), vs VP-16 alone): 107%; Rate of prolongation of life (T/C %) [3, 8]: 117%
6 | O=C(NN=Cc1c(-c2ccc(-c3ccccc3)cc2)nc2sc3c(n12)CCCC3)c1cccnc1 [Compound 2, 5,6,7,8-tetrahydro-2-biphenyl-3-(3-pyridylcarbonylaminoiminomethyl)imidazo[2,1-b]benzothiazole] | – | 1.6 | 12.67 | 114 | 121 | LD50 at 168 h [4]: ≥ 2000 mg/kg
7 | O=C(NN=Cc1c(-c2ccccc2)nc2sc3c(n12)CCCC3)C1CCCN(Cc2ccccc2)C1 (stereo not drawn) [Compound 9, 5,6,7,8-tetrahydro-2-phenyl-3-[N-benzyl-3-piperidylcarbonylaminoiminomethyl]imidazo[2,1-b]benzothiazole] | 2.5 | – | – | – | – | –
8 | COc1cc(-c2nc3sc4c(n3c2C=NNC(=O)c2cccnc2)CCCC4)cc(OC)c1OC [Compound 4, 5,6,7,8-tetrahydro-2-(3,4,5-trimethoxyphenyl)-3-(3-pyridylcarbonylaminoiminomethyl)imidazo[2,1-b]benzothiazole] | – | 20.9 | 13.28 | 120 | 127 | –
9 | O=C(NN=Cc1c(-c2ccccc2)nc2sc3c(n12)CCCC3)c1ccccc1 [Compound 8, 5,6,7,8-tetrahydro-2-phenyl-3-(benzoylaminoiminomethyl)imidazo[2,1-b]benzothiazole] | – | 3.5 | 12.00 | 108 | 115 | –
10 | O=C(NN=Cc1c(-c2ccccc2)nc2sc3c(n12)CCCC3)c1cccnc1 [Compound 1, 5,6,7,8-tetrahydro-2-phenyl-3-(3-pyridylcarbonylaminoiminomethyl)imidazo[2,1-b]benzothiazole] | – | 3.3 | 12.33 | 111 | 118 | LD50 at 168 h [4]: ≥ 2000 mg/kg
11 | CCCN1CCCC(C(=O)NN=Cc2c(-c3ccccc3)nc3sc4ccccc4n23)C1 (stereo not drawn) [Compound 16, 2-phenyl-3-[N-propyl-3-piperidylcarbonylaminoimino-methyl]imidazo[2,1-b]benzothiazole hydrochloride] | 2.6 | – | – | – | – | Days of survival [3, 11]: 12.7 days; Effect overcoming resistance (T/V %) [3, 12]: 113%; Rate of prolongation of life (T/C %) [3, 11]: 123%
12 | CN1CCCC(C(=O)NN=Cc2c(-c3ccc(-c4ccccc4)cc3)nc3sc4c(n23)CCCC4)C1 (stereo not drawn) [Compound 11, 5,6,7,8-tetrahydro-2-biphenyl-3-[N-methyl-3-piperidylcarbonylaminoiminomethyl]imidazo[2,1-b]benzothiazole hydrochloride] | 1.3 | – | – | – | – | Days of survival [3, 11]: 13.0 days; Effect overcoming resistance (T/V %) [3, 12]: 116%; Rate of prolongation of life (T/C %) [3, 11]: 126%
13 | COc1cc([C@@H]2c3cc4c(cc3[C@@H](O[C@@H]3O[C@@H]5CO[C@@H](C)O[C@H]5[C@H](O)[C@H]3O)[C@H]3COC(=O)[C@H]23)OCO4)cc(OC)c1O [VP-16, Etoposide, reference compound] | – | – | – | – | – | Days of survival ([3]; VP-16 alone (3 mg/kg)): 11.2 days; Effect overcoming resistance (T/V %) ([3]; VP-16 alone (3 mg/kg), reference = 100): 100%; Rate of prolongation of life (T/C %) ([3]; VP-16 alone (3 mg/kg)): 109%
